According to patent publication EP4732907A1, “STYRYL BENZOTHIAZOLIUM SALTS AND ITS USES AGAINST PARASITIC INFECTIONS” (priority 2024, dated 2026):

What was measured:
Format in all cases: cell-based
[1] = system: L. major promastigotes (LucRE9); assay: In vitro antileishmanial activity against Leishmania major promastigotes (MTT-based assay, 72 h); details: Table 3; for IC50: Leishmania major, promastigotes, 72 h, MTT
Protocol: Parasite culture: L. major promastigotes (LucRE9) were cultured at 28 °C in 5% CO2 in modified RPMI-1640 medium (Invitrogen, Carlsbad, CA) with 10% hiFBS.
The anti-leishmanial activity of the compounds was determined using MTT-based assay (Sigma-Aldrich) (Antimicrob Agents Chemother 2011, 55, 3838-3844). The stock solutions of the compounds were prepared in DMSO with a final DMSO percentage in each well maintained below 1%. 4 × 10^6 parasites per mL were incubated at 28 °C in 96-well plates (50 µL/well) either alone or in the presence of increasing concentration of compounds DMSO for 72 h. After the incubation period, 10 µL of MTT (5 mg/ml) was added to each well and parasites were incubated for 4 h at 28°C. Subsequently, cell lysis was performed using 50 µL/well of 20% SDS. The plate was then incubated at 37 °C for an additional hour and then absorbance was measured at a wavelength of 540 using an Infinite F200 plate reader (TECAN Austria, GmbH). The IC50 was calculated as described above. Data were presented as the average of at least three independent measurements, each conducted in triplicate conditions.

[2] = system: MRC-5 cell line; assay: Cytotoxicity assay in MRC-5 cell line (alamarBlue assay, 72 h); details: Homo sapiens, MRC5, Table 3
Protocol: Cell culture: Cell culture media were purchased from Gibco (Grand Island, NY, USA). Fetal bovine serum (FBS) was a product of Harlan-Seralab (Belton, U.K.). Supplements and other chemicals not listed in this section were obtained from Sigma Chemicals Co. (St. Louis, Mo., USA). Plastics for cell culture were supplied by Thermo Scientific™ BioLite. All tested compounds were dissolved in DMSO at a concentration of 10 mg/mL and stored at -20°C until use. Cell lines were maintained in Dulbecco's modified Eagle's medium (DMEM) containing glucose (1 g/L), glutamine (2 mM), penicillin (50 IU/mL), streptomycin (50 µg/mL) and amphotericin (1.25 µg/mL), supplemented with 10% FBS.
The stock solutions of the compounds were prepared in DMSO, with the final DMSO concentration in each well maintained below 1%. […] Subsequently, the compounds were added at various concentrations ranging from 0 to 100 µM, and the plates were incubated for 72 h. After the incubation period, 20 µL of resazurin solution (110 ng/ml) were added to each well and cells were incubated for 4 h. Then, cells were lysed with 50 µL/well of 3% SDS. The plate was incubated at 37 °C for an additional hour and subsequently, the fluorescence intensity was measure at the Infinite F200 plate reader (TECAN Austria, GmbH), exciting at 550 nm and recording the emission at 590 nm. […] Data are presented as the average of at least three independent measurements, each conducted in triplicate conditions.

[3] = system: THP1 cells (human monocytic cell line); assay: Cytotoxicity assay on PMA-differentiated THP1 (alamarBlue assay, 72 h); details: THP-1, Table 4, PMA-differentiated THP1, 72 h
Protocol: Post-differentiation, the cells were washed and fresh medium was added (100 µL/well) before being reincubated. […] Data represent the average of three independent experiments, each conducted in triplicate.

[4] = system: Bloodstream forms (BSF) of T. brucei brucei 'single marker' S427 (S16); assay: In vitro antitrypanosomal activity against Trypanosoma brucei (alamarBlue assay, 72 h); details: Table 3; IC50 MRC-5 / IC50 T.brucei
Description: Data were presented as the average of at least three independent measurements, each conducted in triplicate conditions.

[5] = system: Leishmania major amastigotes; assay: In vitro antileishmanial activity against Leishmania major amastigotes in THP1 cells (luciferase assay, 72 h); details: Table 4
Protocol: The antiparasitic activity of the compounds against the intracellular form of Leishmania major was evaluated using the Luciferase Assay System kit from Promega. […] Post-differentiation, the cells were washed and fresh medium was added (100 µL/well) before being reincubated. […] The plates were then incubated at 35°C in 5% CO2. After 24 hours, the wells were washed three times with PBS, and fresh medium with increasing concentrations of compounds was added (100 µL/well). After another 72 hours of incubation, the cells were then treated with 25 µL of lysis buffer and stored at -80°C. Following 24 hours, 25 µL of luciferase enzyme substrate was added to each well, and the luciferase activity of the amastigotes was determined using a TECAN Infinite F200 microplate reader. […] Data represent the average of three independent experiments, each conducted in triplicate.

| Compound | IC50 [1] [µM] | IC50 [2] [µM] | IC50 [3] [µM] | Selectivity Index (SI) T.brucei [4] | Selectivity Index (SI) L.major ([1]; IC50 MRC-5 / IC50 L.major promastigotes) | IC50 ([5]; Leishmania major, THP-1, intracellular amastigotes in THP1 macrophages, 72 h, read-out: IC50 (uM) L. major) [µM] | Selectivity Index (SI) MRC-5 ([5]; IC50 MRC-5 / IC50 L.major amastigotes) | Selectivity Index (SI) THP-1 ([5]; IC50 THP-1 / IC50 L. major amastigotes) |
| --- | --- | --- | --- | --- | --- | --- | --- | --- |
| CN(C)c1ccc(/C=C/c2sc3ccccc3[n+]2C)cc1 [Compound 1, (E)-2-(4-(Dimethylamino)styryl)-3-methylbenzo[d]thiazol-3-ium iodide] | 0.02 ± 0.013 | 1.52 ± 0.37 | – | – | – | – | – | – |
| C[n+]1c(/C=C/c2ccc(N(c3ccccc3)c3ccccc3)cc2)sc2ccccc21 [Compound 2] | 0.02 ± 0.011 | 5.13 ± 0.76 | 0.93 ± 0.02 | 15.1 | 252.0 | 0.0281 ± 0.00473 | 182 | 33 |
| C[n+]1c(/C=C/c2cc3c4c(c2)CCCN4CCC3)sc2ccccc21 [Compound 3] | 0.0065 ± 0.0029 | 0.08 ± 0.03 | – | – | – | – | – | – |
